Source: patent publication US11427558B1, “Indazoles and azaindazoles as LRRK2 inhibitors” (ESCAPE Bio, Inc., priority 2019, dated 2022)

Key:
[1] = target: Recombinant wild type LRRK2 protein (Homo sapiens (Human), UniProt Q5S007); test: LRRK2 kinase activity, LanthaScreen TR-FRET assay (wild type); type: biochemical; conditions: LRRKtide 400 nM, 25 μM ATP, 60 min; read-out: LRRK2 WT IC50
Outline: (§1)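 Recombinant human wild-type or G2019S LRRK2 phosphorylated fluorescein-labelled LRRKtide (ERM-based) with ATP and serially diluted compound for 60 min at room temperature.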

[2] = target: Recombinant G2019S-LRRK2 protein (Homo sapiens (Human), UniProt Q5S007, G2019S); test: LRRK2 kinase activity, LanthaScreen TR-FRET assay (G2019S); type: biochemical; conditions: LRRKtide 400 nM, 25 μM ATP, 60 min
Outline: as §1

Sequence of Recombinant wild type LRRK2 protein (Q5S007 whole entry): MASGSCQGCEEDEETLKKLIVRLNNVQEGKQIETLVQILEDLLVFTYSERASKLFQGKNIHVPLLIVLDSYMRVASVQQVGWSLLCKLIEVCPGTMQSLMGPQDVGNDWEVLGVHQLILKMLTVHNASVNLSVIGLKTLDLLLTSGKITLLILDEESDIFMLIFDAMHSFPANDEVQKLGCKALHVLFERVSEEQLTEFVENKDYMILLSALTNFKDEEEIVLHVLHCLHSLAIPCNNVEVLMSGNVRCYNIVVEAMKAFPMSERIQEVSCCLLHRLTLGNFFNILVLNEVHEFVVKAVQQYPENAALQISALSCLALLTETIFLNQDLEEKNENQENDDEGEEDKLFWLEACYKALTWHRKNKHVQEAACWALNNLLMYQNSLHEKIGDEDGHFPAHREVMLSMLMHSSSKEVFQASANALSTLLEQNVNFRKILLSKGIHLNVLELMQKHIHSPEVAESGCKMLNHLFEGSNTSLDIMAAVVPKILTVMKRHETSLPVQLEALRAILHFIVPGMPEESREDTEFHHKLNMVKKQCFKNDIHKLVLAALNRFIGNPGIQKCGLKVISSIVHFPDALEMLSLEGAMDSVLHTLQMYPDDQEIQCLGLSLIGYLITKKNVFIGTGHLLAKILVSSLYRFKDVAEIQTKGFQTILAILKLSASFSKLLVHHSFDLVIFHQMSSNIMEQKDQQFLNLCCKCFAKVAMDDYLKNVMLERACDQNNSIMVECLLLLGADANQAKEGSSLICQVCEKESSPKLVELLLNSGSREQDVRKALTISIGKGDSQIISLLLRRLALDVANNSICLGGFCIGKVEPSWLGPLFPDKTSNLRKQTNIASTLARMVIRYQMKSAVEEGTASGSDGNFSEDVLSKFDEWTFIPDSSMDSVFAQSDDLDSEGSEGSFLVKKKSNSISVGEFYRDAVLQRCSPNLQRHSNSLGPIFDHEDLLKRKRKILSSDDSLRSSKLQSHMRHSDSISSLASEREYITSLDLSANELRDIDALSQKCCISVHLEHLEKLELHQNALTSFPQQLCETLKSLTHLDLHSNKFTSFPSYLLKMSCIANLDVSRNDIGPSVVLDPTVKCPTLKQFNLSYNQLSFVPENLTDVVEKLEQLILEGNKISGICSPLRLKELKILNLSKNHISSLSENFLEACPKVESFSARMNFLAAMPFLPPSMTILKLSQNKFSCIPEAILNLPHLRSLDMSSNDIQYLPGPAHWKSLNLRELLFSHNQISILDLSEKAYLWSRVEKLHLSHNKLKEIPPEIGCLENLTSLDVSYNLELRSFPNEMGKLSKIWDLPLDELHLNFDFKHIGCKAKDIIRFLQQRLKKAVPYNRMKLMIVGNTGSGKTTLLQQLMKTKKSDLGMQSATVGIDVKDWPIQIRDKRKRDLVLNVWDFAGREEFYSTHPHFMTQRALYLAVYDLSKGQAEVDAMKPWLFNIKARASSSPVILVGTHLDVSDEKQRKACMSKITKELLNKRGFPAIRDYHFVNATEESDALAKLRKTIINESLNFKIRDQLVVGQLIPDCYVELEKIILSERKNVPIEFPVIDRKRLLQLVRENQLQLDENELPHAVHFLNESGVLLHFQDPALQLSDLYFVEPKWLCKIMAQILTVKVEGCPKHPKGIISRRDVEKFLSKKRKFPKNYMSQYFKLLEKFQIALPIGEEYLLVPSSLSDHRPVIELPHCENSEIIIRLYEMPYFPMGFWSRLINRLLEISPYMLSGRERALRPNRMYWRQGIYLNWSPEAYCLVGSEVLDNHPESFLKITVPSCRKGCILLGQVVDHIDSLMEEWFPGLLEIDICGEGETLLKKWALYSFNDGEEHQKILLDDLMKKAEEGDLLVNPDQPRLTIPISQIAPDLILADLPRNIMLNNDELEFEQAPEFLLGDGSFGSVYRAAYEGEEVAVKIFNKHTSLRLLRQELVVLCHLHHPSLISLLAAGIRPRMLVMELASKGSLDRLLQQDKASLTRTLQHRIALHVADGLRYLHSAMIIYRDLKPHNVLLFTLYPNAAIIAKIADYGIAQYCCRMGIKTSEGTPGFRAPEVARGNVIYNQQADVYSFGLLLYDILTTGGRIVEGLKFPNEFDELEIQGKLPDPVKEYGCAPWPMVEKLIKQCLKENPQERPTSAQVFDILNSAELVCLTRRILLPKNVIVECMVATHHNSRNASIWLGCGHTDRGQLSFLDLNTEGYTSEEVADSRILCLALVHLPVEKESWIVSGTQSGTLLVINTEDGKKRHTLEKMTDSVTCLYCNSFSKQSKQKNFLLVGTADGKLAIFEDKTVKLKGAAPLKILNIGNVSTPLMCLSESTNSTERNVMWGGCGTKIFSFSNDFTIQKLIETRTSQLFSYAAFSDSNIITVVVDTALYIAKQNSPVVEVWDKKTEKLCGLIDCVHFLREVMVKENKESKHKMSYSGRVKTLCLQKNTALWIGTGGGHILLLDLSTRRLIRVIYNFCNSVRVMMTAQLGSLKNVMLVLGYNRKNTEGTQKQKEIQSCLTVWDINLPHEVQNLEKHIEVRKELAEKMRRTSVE
Sequence of Recombinant G2019S-LRRK2 protein (Q5S007 whole entry G2019S): as the sequence (Q5S007 whole entry) above, with G2019S counted along it

| Structure (SMILES) | IC50 [1] [nM] | IC50 [2] [nM] |
| --- | --- | --- |
| Cc1cc(C#N)cnc1C(=O)Nc1ccc2[nH]nc(-n3ccoc3=O)c2c1 [Example 242, 5-Cyano-3-methyl-N-(3-(2-oxooxazol-3(2H)-yl)-1H-indazol-5-yl)picolinamide] | 1000 to 10000 | < 100 |
| CC(C)=Cc1n[nH]c2ccc(NC(=O)c3ncc(C#N)c(C)c3C)cc12 [Example 243, 5-Cyano-3,4-dimethyl-N-(3-(2-methylprop-1-en-1-yl)-1H-indazol-5-yl)picolinamide] | 100 to 1000 | < 100 |
| Cc1c(C#N)cnc(C(=O)Nc2ccc3[nH]nc(/C=C/c4ccccc4)c3c2)c1C [Example 244, (E)-5-Cyano-3,4-dimethyl-N-(3-styryl-1H-indazol-5-yl)picolinamide] | < 100 | < 100 |
| C/C=C/c1n[nH]c2ccc(NC(=O)c3ncc(C#N)c(C)c3C)cc12 [Example 245, (E)-5-cyano-3,4-dimethyl-N-(3-(prop-1-en-1-yl)-1H-indazol-5-yl)picolinamide] | 100 to 1000 | < 100 |
| Cc1c(C#N)cn(C)c1C(=O)Nc1ccc2[nH]nc(-c3cnoc3)c2c1 [Example 246, 4-Cyano-N-(3-(isoxazol-4-yl)-1H-indazol-5-yl)-1,3-dimethyl-1H-pyrrole-2-carboxamide] | < 100 | < 100 |
| Cn1cc(C#N)cc1C(=O)Nc1ccc2[nH]nc(-c3cnoc3)c2c1 [Example 247, 4-Cyano-N-(3-(isoxazol-4-yl)-1H-indazol-5-yl)-1-methyl-1H-pyrrole-2-carboxamide] | < 100 | < 100 |
| Cc1c(C#N)cnc(C(=O)Nc2ccc3[nH]nc(/C=C/c4ccccn4)c3c2)c1C [Example 248, (E)-5-Cyano-3,4-dimethyl-N-(3-(2-(pyridin-2-yl)vinyl)-1H-indazol-5-yl)picolinamide] | < 100 | < 100 |
| COc1cc(C(=O)Nc2ccc3[nH]nc(-c4cnco4)c3c2)ncc1C#N [Example 249, 5-Cyano-4-methoxy-N-(3-(oxazol-5-yl)-1H-indazol-5-yl)picolinamide] | 100 to 1000 | < 100 |
| C=C(C)c1cc(C#N)cnc1C(=O)Nc1ccc2[nH]nc(-c3cnco3)c2c1 [Example 250, 5-Cyano-N-(3-(oxazol-5-yl)-1H-indazol-5-yl)-3-(prop-1-en-2-yl)picolinamide] | < 100 | < 100 |
| CC(C)c1cc(C#N)cnc1C(=O)Nc1ccc2[nH]nc(-c3cnco3)c2c1 [Example 251, 5-Cyano-3-isopropyl-N-(3-(oxazol-5-yl)-1H-indazol-5-yl)picolinamide] | 100 to 1000 | < 100 |
| Cc1c(C#N)cnc(C(=O)Nc2ccc3[nH]nc([C@@H]4CC4c4ccccc4)c3c2)c1C (stereo partly drawn) [Example 252, 5-Cyano-3,4-dimethyl-N-(3-((1R)-2-phenylcyclopropyl)-1H-indazol-5-yl)picolinamide] | 100 to 1000 | < 100 |
| Cc1cc(C#N)cnc1C(=O)Nc1ccc2[nH]nc(N3CCC3)c2c1 [Example 253, N-(3-(Azetidin-1-yl)-1H-indazol-5-yl)-5-cyano-3-methylpicolinamide] | 1000 to 10000 | 100 to 1000 |
| Cc1cc(C#N)cnc1C(=O)Nc1ccc2[nH]nc(N3CC(F)(F)C3)c2c1 [Example 254, 5-Cyano-N-(3-(3,3-difluoroazetidin-1-yl)-1H-indazol-5-yl)-3-methylpicolinamide] | 1000 to 10000 | 100 to 1000 |
| Cc1cc(C#N)cnc1C(=O)Nc1ccc2[nH]nc(OCc3ccccc3)c2c1 [Example 255, N-(3-(Benzyloxy)-1H-indazol-5-yl)-5-cyano-3-methylpicolinamide] | 100 to 1000 | < 100 |
| Cc1cc(C#N)cnc1C(=O)Nc1ccc2[nH]nc(C3COC3)c2c1 [Example 256, 5-Cyano-3-methyl-N-(3-(oxetan-3-yl)-1H-indazol-5-yl)picolinamide] | 1000 to 10000 | 1000 to 10000 |
| Cc1c(C#N)cnc(C(=O)Nc2ccc3[nH]nc(C4CC4(C)C)c3c2)c1C (centres unmarked) [Example 257, 5-Cyano-N-(3-(2,2-dimethylcyclopropyl)-1H-indazol-5-yl)-3,4-dimethylpicolinamide] | 1000 to 10000 | 1000 to 10000 |
| COc1cc(C(=O)Nc2ccc3[nH]nc(-c4cnco4)c3c2)nc(C)c1C#N [Example 258, 5-Cyano-4-methoxy-6-methyl-N-(3-(oxazol-5-yl)-1H-indazol-5-yl)picolinamide] | 1000 to 10000 | < 100 |
| Cc1c(C#N)cnc(C(=O)Nc2ccc3[nH]nc(C=C4CCN(C(=O)OC(C)(C)C)CC4)c3c2)c1C [Example 259, tert-butyl 4-((5-(5-Cyano-3,4-dimethylpicolinamido)-1H-indazol-3-yl)methylene)piperidine-1-carboxylate] | > 10000 | > 10000 |
| Cc1c(C#N)cnc(C(=O)Nc2ccc3[nH]nc(C=C4CCNCC4)c3c2)c1C [Example 260, 5-Cyano-3,4-dimethyl-N-(3-(piperidin-4-ylidenemethyl)-1H-indazol-5-yl)picolinamide] | > 10000 | 1000 to 10000 |

| Structure (SMILES) | IC50 [1] [nM] | IC50 [2] [nM] |
| --- | --- | --- |
| Cc1c(C#N)cnc(C(=O)Nc2ccc3[nH]nc(/C=C4/CCOC4)c3c2)c1C [Example 261, (Z)-5-Cyano-N-(3-((dihydrofuran-3(2H)-ylidene)methyl)-1H-indazol-5-yl)-3,4-dimethylpicolinamide] | 1000 to 10000 | < 100 |
| Cc1c(C#N)cnc(C(=O)Nc2ccc3[nH]nc(C=C4CCOCC4)c3c2)c1C [Example 262, 5-Cyano-3,4-dimethyl-N-(3-((tetrahydro-4H-pyran-4-ylidene)methyl)-1H-indazol-5-yl)picolinamide] | 1000 to 10000 | 1000 to 10000 |
| Cc1c(C#N)cnc(C(=O)Nc2ccc3[nH]nc(C=C4COC4)c3c2)c1C [Example 263, 5-Cyano-3,4-dimethyl-N-(3-(oxetan-3-ylidenemethyl)-1H-indazol-5-yl)picolinamide] | 1000 to 10000 | 100 to 1000 |
| COCc1n[nH]c2ccc(NC(=O)c3ncc(C#N)c(C)c3C)cc12 [Example 264, 5-Cyano-N-(3-(methoxymethyl)-1H-indazol-5-yl)-3,4-dimethylpicolinamide] | 1000 to 10000 | 100 to 1000 |
| Cc1c(C#N)cnc(C(=O)Nc2ccc3[nH]nc(C4CC4C(F)(F)F)c3c2)c1C (centres unmarked) [Example 265, 5-Cyano-3,4-dimethyl-N-(3-(2-(trifluoromethyl)cyclopropyl)-1H-indazol-5-yl)picolinamide] | 1000 to 10000 | 100 to 1000 |
| Cc1c(C#N)cnc(C(=O)Nc2ccc3[nH]nc(/C=C/C(F)(F)F)c3c2)c1C [Example 266, (E)-5-Cyano-3,4-dimethyl-N-(3-(3,3,3-trifluoroprop-1-en-1-yl)-1H-indazol-5-yl)picolinamide] | 100 to 1000 | < 100 |
| C=C(C)c1n[nH]c2ccc(NC(=O)c3ncc(C#N)c(C)c3C)cc12 [Example 267, 5-Cyano-3,4-dimethyl-N-(3-(prop-1-en-2-yl)-1H-indazol-5-yl)picolinamide] | 100 to 1000 | < 100 |
| Cc1c(C#N)cnc(C(=O)Nc2ccc3[nH]nc(C4(C)CC4)c3c2)c1C [Example 268, 5-Cyano-3,4-dimethyl-N-(3-(1-methylcyclopropyl)-1H-indazol-5-yl)picolinamide] | 1000 to 10000 | 100 to 1000 |
| COC(C)c1n[nH]c2ccc(NC(=O)c3ncc(C#N)c(C)c3C)cc12 (centres unmarked) [Example 269, 5-Cyano-N-(3-(1-methoxyethyl)-1H-indazol-5-yl)-3,4-dimethylpicolinamide] | > 10000 | 1000 to 10000 |
| Cc1c(C(=O)Nc2ccc3[nH]nc(C(C)C)c3c2)nc(Cl)c(C#N)c1C [Example 270, 6-Chloro-5-cyano-N-(3-isopropyl-1H-indazol-5-yl)-3,4-dimethylpicolinamide] | < 100 | < 100 |
| CCc1n[nH]c2ccc(NC(=O)c3nc(Cl)c(C#N)c(C)c3C)cc12 [Example 271, 6-Chloro-5-cyano-N-(3-ethyl-1H-indazol-5-yl)-3,4-dimethylpicolinamide] | < 100 | < 100 |
| Cc1cc(C#N)cnc1C(=O)Nc1ccc2[nH]nc(-c3ccnnc3)c2c1 [Example 272, 5-Cyano-3-methyl-N-(3-(pyridazin-4-yl)-1H-indazol-5-yl)picolinamide] | 100 to 1000 | < 100 |
| Cc1cc(-c2n[nH]c3ccc(NC(=O)c4ncc(C#N)cc4C)cc23)cnn1 [Example 273, 5-Cyano-3-methyl-N-(3-(6-methylpyridazin-4-yl)-1H-indazol-5-yl)picolinamide] | 100 to 1000 | < 100 |
| C=C(C)c1c(C#N)cccc1C(=O)Nc1ccc2[nH]nc(C)c2c1 [Example 274, 3-Cyano-N-(3-methyl-1H-indazol-5-yl)-2-(prop-1-en-2-yl)benzamide] | 1000 to 10000 | < 100 |
| Cc1nc(C(=O)Nc2ccc3[nH]nc(C)c3c2)c(Cl)c(C)c1C#N [Example 275, 3-Chloro-5-cyano-4,6-dimethyl-N-(3-methyl-1H-indazol-5-yl)picolinamide] | 100 to 1000 | < 100 |
| Cc1c(C#N)cnc(C(=O)Nc2ccc3[nH]nc(C=C4CCC4)c3c2)c1C [Example 276, 5-Cyano-N-(3-(cyclobutylidenemethyl)-1H-indazol-5-yl)-3,4-dimethylpicolinamide] | 100 to 1000 | < 100 |
| Cc1c(C#N)cnc(C(=O)Nc2ccc3[nH]nc(-c4ccnc(N5CCOCC5)c4)c3c2)c1C [Example 277, 5-Cyano-3,4-dimethyl-N-(3-(2-morpholinopyridin-4-yl)-1H-indazol-5-yl)picolinamide] | < 100 | < 100 |
| Cc1c(C(=O)Nc2ccc3[nH]nc(-c4ccnc(N5CCOCC5)c4)c3c2)nc(Cl)c(C#N)c1C [Example 278, 6-Chloro-5-cyano-3,4-dimethyl-N-(3-(2-morpholinopyridin-4-yl)-1H-indazol-5-yl)picolinamide] | < 100 | < 100 |
